Measured values from the NIST ThermoML archive (doi:10.1016/j.jct.2015.02.024).
Numbers after ± are expanded uncertainties.

Key:
[1] = for viscosity / mass density: 101.33 kPa, Liquid; for viscosity: Falling or rolling sphere viscometry; for mass density: Vibrating tube method
[2] = activity coefficient (dimensionless); of the first substance listed, at infinite dilution; xn = mol fraction of the nth substance listed; conditions: 101 kPa, Liquid, Chromatography, x1 = 0

Row | Compound | activity coefficient ([2]; 318.15 K) | activity coefficient ([2]; 328.15 K) | activity coefficient ([2]; 338.15 K) | activity coefficient ([2]; 348.15 K) | activity coefficient ([2]; 358.15 K) | activity coefficient ([2]; 368.15 K) | further results
1 | C[N+]1(CCCO)CCOCC1.O=S(=O)([N-]S(=O)(=O)C(F)(F)F)C(F)(F)F |  |  |  |  |  |  | viscosity ([1]; 298.15 K): 1183 ± 130 mPa·s; mass density ([1]; 298.15 K): 1536.09 ± 4.6 kg/m3; viscosity ([1]; 308.15 K): 565.7 ± 47 mPa·s; mass density ([1]; 308.15 K): 1527.32 ± 4.6 kg/m3; viscosity ([1]; 318.15 K): 280.7 ± 17 mPa·s; mass density ([1]; 318.15 K): 1518.74 ± 4.5 kg/m3; viscosity ([1]; 328.15 K): 156.1 ± 6.8 mPa·s; mass density ([1]; 328.15 K): 1510.14 ± 4.5 kg/m3; viscosity ([1]; 338.15 K): 94.49 ± 3 mPa·s; mass density ([1]; 338.15 K): 1501.59 ± 4.4 kg/m3; viscosity ([1]; 348.15 K): 61.14 ± 1.6 mPa·s; mass density ([1]; 348.15 K): 1493.08 ± 4.4 kg/m3; viscosity ([1]; 358.15 K): 37.79 ± 1 mPa·s; mass density ([1]; 358.15 K): 1484.63 ± 4.3 kg/m3; viscosity ([1]; 368.15 K): 27.09 ± 0.71 mPa·s; mass density ([1]; 368.15 K): 1476.24 ± 4.3 kg/m3; Normal melting temperature ([1]; Crystal, DTA): 14 ± 0.4 °C; Glass transition temperature ([1]; Glass, DTA): -52.5 ± 0.4 °C
2 | C1COCCO1 [1,4-dioxane] + C[N+]1(CCCO)CCOCC1.O=S(=O)([N-]S(=O)(=O)C(F)(F)F)C(F)(F)F | 0.6 ± 0.042 | 0.653 ± 0.045 | 0.709 ± 0.047 | 0.758 ± 0.05 | 0.811 ± 0.052 | 0.859 ± 0.055 | 
3 | CCC(C)(C)OC [2-methoxy-2-methylbutane] + C[N+]1(CCCO)CCOCC1.O=S(=O)([N-]S(=O)(=O)C(F)(F)F)C(F)(F)F | 8.7 ± 0.59 | 8.75 ± 0.6 | 8.8 ± 0.6 | 8.86 ± 0.6 | 8.89 ± 0.61 | 8.93 ± 0.61 | 
4 | CC(C)OC(C)C [diisopropyl ether] + C[N+]1(CCCO)CCOCC1.O=S(=O)([N-]S(=O)(=O)C(F)(F)F)C(F)(F)F | 17.3 ± 1.2 | 17.1 ± 1.2 | 16.9 ± 1.2 | 16.7 ± 1.1 | 16.5 ± 1.1 | 16.3 ± 1.1 | 
5 | CCC(C)CC [3-methylpentane] + C[N+]1(CCCO)CCOCC1.O=S(=O)([N-]S(=O)(=O)C(F)(F)F)C(F)(F)F | 152 ± 10 |  |  |  |  |  | activity coefficient ([2]; 298.15 K): 273 ± 19; activity coefficient ([2]; 308.15 K): 201 ± 14
6 | CCC(C)O (stereo not drawn) [butan-2-ol] + C[N+]1(CCCO)CCOCC1.O=S(=O)([N-]S(=O)(=O)C(F)(F)F)C(F)(F)F | 2.59 ± 0.18 | 2.52 ± 0.17 | 2.46 ± 0.17 | 2.4 ± 0.16 | 2.34 ± 0.16 | 2.29 ± 0.16 | 
7 | CCCOCCC [dipropyl ether] + C[N+]1(CCCO)CCOCC1.O=S(=O)([N-]S(=O)(=O)C(F)(F)F)C(F)(F)F | 20.1 ± 1.4 | 19.5 ± 1.3 | 18.9 ± 1.3 | 18.4 ± 1.3 | 17.9 ± 1.2 | 17.4 ± 1.2 | 
8 | C#CCCC [1-pentyne] + C[N+]1(CCCO)CCOCC1.O=S(=O)([N-]S(=O)(=O)C(F)(F)F)C(F)(F)F | 7.77 ± 0.53 | 7.48 ± 0.51 | 7.24 ± 0.49 | 6.99 ± 0.48 | 6.79 ± 0.46 | 6.63 ± 0.45 | 
9 | C1CCCCCCC1 [cyclooctane] + C[N+]1(CCCO)CCOCC1.O=S(=O)([N-]S(=O)(=O)C(F)(F)F)C(F)(F)F | 110 ± 8 | 93.7 ± 6.4 | 83.6 ± 5.7 | 71.9 ± 4.9 | 64.4 ± 4.4 | 58.6 ± 4 | 
10 | Cc1ccc(C)cc1 [1,4-dimethylbenzene] + C[N+]1(CCCO)CCOCC1.O=S(=O)([N-]S(=O)(=O)C(F)(F)F)C(F)(F)F | 6.65 ± 0.45 | 6.7 ± 0.5 | 6.74 ± 0.46 | 6.78 ± 0.46 | 6.79 ± 0.46 | 6.84 ± 0.47 | 
11 | c1ccccc1 [benzene] + C[N+]1(CCCO)CCOCC1.O=S(=O)([N-]S(=O)(=O)C(F)(F)F)C(F)(F)F | 2.53 ± 0.17 | 2.56 ± 0.17 | 2.58 ± 0.18 | 2.6 ± 0.18 | 2.63 ± 0.18 | 2.65 ± 0.18 | 
12 | CC(C)CO [2-methyl-1-propanol] + C[N+]1(CCCO)CCOCC1.O=S(=O)([N-]S(=O)(=O)C(F)(F)F)C(F)(F)F | 3.25 ± 0.22 | 3.08 ± 0.21 | 2.94 ± 0.2 | 2.78 ± 0.19 | 2.65 ± 0.18 | 2.54 ± 0.17 | 
13 | CCCCCCCCC [nonane] + C[N+]1(CCCO)CCOCC1.O=S(=O)([N-]S(=O)(=O)C(F)(F)F)C(F)(F)F | 445 ± 31 | 385 ± 26 | 332 ± 23 | 287 ± 20 | 249 ± 17 | 224 ± 15 | 
14 | CCCC(=O)OC [methyl butanoate] + C[N+]1(CCCO)CCOCC1.O=S(=O)([N-]S(=O)(=O)C(F)(F)F)C(F)(F)F | 2.41 ± 0.16 | 2.48 ± 0.17 | 2.56 ± 0.17 | 2.62 ± 0.18 | 2.68 ± 0.18 | 2.75 ± 0.19 | 
